Source: BindingDB's records for doi:10.1021/jm025558r (Friedrich-Alexander University, 2002)
pKi: −log10 of the molar value.

Key:
[1] = biological target: D(1) dopamine receptor (Sus scrofa); experiment: Binding affinity for porcine Dopamine receptor D1 by [3H]-SCH- 23390 displacement.
[2] = biological target: 5-hydroxytryptamine receptor 1A (Sus scrofa); experiment: Displacement of [3H]- 8-OH-DPAT from porcine 5-hydroxytryptamine 1A receptor

SMILES: O=C(NCCCCN1CCN(c2cccc(Cl)c2Cl)CC1)c1cc2ccccc2[te]1 [Benzo[b]tellurophene-2-carboxylic acid {4-[4-(2,3-dichloro-phenyl)-piperazin-1-yl]-butyl}-amide]
- pKi [1]: 5.85
- pKi [2]: 6.90
